In one data set the test system is islet neoplasia (INeo). Kind of data set: Potentiation of the INeo response to somatostatin analogues. The settings on record: preliminary data. An excerpt:
The following are key findings in this field: 1.

Another data set concerns BIRC5. Kind of data set: High-throughput screening of FDA-approved drug library, BIRC5 synthetic promoter-driven luciferase. It counts as cell-based, human. The following applies: BIRC5SP-Luc2-Puro MiaPaca2 cells, 48 hours after drug administration, Bright-Glo / CellTiter-Glo. From the text: Differentially over-expressed BIRC5 was validated using RT-PCR in rPDAC versus matching non-tumor pancreas (FIG. 8A), as well as western blot assay of ATCC™ PDAC cell lines (FIG. 8B). These preliminary data support the WGCNA that BIRC5 is an actionable gene (AG) for rPDAC. A powerful synthetic promoter for BIRC5, BIRC5-SP (BL-2), was generated (FIG. 8C) and used for BIRC5^SP-Luc2-Puro stable transfection into MiaPaca2 cells, which in turn were used for high-throughput small molecule screening (HTS) of the FDA-approved drug library. BIRC5^SP-Luc2-Puro PDAC cells were plated on 384-well plates and 2100 FDA-approved drugs were applied to cells with a pin plate automatic system. Luciferase expression was measured in a plate reader 48 hours after drug administration using Bright-Glo™. Cell viability of treated cells was measured using CellTiter-Glo™. BIRC5-luciferase signal read outs were normalized using cell viability measurements. Inhibitory drugs include daunorubicin and paclitaxel (Kusukawa N, Ishida H, Tanase K, Ito H, Aoki Y, Ooyama N, et al. [Successful treatment with docetaxel and prednisolone for paxlitaxel and carboplatin-resistant prostate cancer]. Hinyokika kiyo Acta urologica Japonica. 2013; 59(5):301-4. PubMed PMID: 23719139), as well as other novel rPDAC drugs such as bergenin, simvastatin, fluvastatin (Garwood E R, Kumar A S, Baehner F L, Moore D H, Au A, Hylton N, et al. Fluvastatin reduces proliferation and increases apoptosis in women with high grade breast cancer. Breast cancer research and treatment. 2010; 119(1):137-44. doi: 10.1007/s10549-009-0507-x. PubMed PMID: 19728082; PubMed Central PMCID: PMC4087110; Bocci G, Fioravanti A, Orlandi P, Bernardini N, Collecchi P, Del Tacca M, et al. Fluvastatin synergistically enhances the antiproliferative effect of gemcitabine in human pancreatic cancer MIAPaCa-2 cells. British journal of cancer. 2005; 93(3):319-30. doi: 10.1038/sj.bjc.6602720. […]

Data set [1] has as its system pancreatic ductal adenocarcinoma cells (PANC-1, MIA PaPc2, AsPc-1, and Capan-2). Kind of data set: LAMC2 synthetic promoter luciferase reporter assay in PDAC cell lines. It counts as cell-based, human. An excerpt:
FIG. 22 is a graph showing the relative luciferase activity of various synthetic LAMC2 promoters (i.e. LamS1, Lams1E4T, Lams2E4T, and Lams3E4T) and CMV in various cell lines, in accordance with one or more embodiments of the invention.
(§1) FIG. 23 is a graph showing the relative luciferase activity of an endogenous LAMC2 promoter (LAMC2-EP-Luc), a synthetic LAMC2 promoter (LAMC2-SP-Luc), and CMV in various cell lines, in accordance with one or more embodiments of the invention.
LAMC2 is a key oncologic regulator of apoptosis that is also over-expressed in most cancers, including pancreatic cancer, but not in normal cells. In one aspect of the invention, a LAMC2 synthetic promoter (BL-3) generated from the endogenous promoter of LAMC2 is provided that is 1000× more powerful than the endogenous promoter and also more powerful than the cytomegalovirus (CMV) promoter in stimulating gene expression. The promoter competes with the CMV promoter, which is non-specific for cancer. The BL-3 synthetic promoter is more highly specific for cancer, especially pancreatic cancer, since it is not expressed in normal cells, including islets of Langerhans, and therefore is less toxic. The technique to generate the LAMC2 synthetic promoter (BL-3) and its uses are similar to U.S. patent application Ser. No. 14/396,967, which describes a synthetic BL-1 promoter for the insulin gene. However, the synthetic BL-1 promoter is expressed in islets of Langerhans, which therefore can lead to […] and diabetes as a toxic effect.

Data set [2] concerns human primary pancreatic epithelial cells (HPPE). Kind of data set: LAMC2 synthetic promoter luciferase reporter assay in normal cells. The data set is classed as cell-based. The settings on record: HPPE and human pancreatic duct epithelial cells (FIG. 23).
From the text: as §1

On to `C[C@H](N)COC(=O)[C@H](CCCCN)NC(=O)Cc1c(-c2ccc3ccccc3c2)[nH]c2c1ccc1ccccc12` [SSTR5 small molecule agonist], for which, in the data set on islet neoplasia (INeo), the “effect on the INeo response to SAs” value is “potentiates the INeo response to SAs”. On to `COc1c(O)cc2c(c1O)[C@@H]1O[C@H](CO)[C@@H](O)[C@H](O)[C@H]1OC2=O` [bergenin], for which, in the data set with BIRC5, the “effect on BIRC5-luciferase signal normalized using cell viability” value is “Inhibitory”. As for `COc1cccc2c1C(=O)c1c(O)c3c(c(O)c1C2=O)C[C@@](O)(C(C)=O)C[C@@H]3O[C@H]1C[C@H](N)[C@H](O)[C@H](C)O1` [daunorubicin], the “effect on BIRC5-luciferase signal normalized using cell viability” value in the data set on BIRC5 is on record as “Inhibitory”. With `CN(C)C(=N)N=C(N)N` [metformin], the “effect on the INeo response to SAs” value in the data set with islet neoplasia (INeo) is reported as “potentiate the INeo response to SAs”. Regarding `CC(=O)O[C@H]1C(=O)[C@@]2(C)[C@H]([C@H](OC(=O)c3ccccc3)[C@]3(O)C[C@H](OC(=O)[C@H](O)[C@@H](NC(=O)c4ccccc4)c4ccccc4)C(C)=C1C3(C)C)[C@]1(OC(C)=O)CO[C@@H]1C[C@@H]2O` [paclitaxel], the “effect on BIRC5-luciferase signal normalized using cell viability” value in the data set on BIRC5 is given as “Inhibitory”.

B1: BL-3: LAMC2 synthetic promoter generated from the endogenous promoter of LAMC2 (LamS1, SEQ ID NO: 10/11) (nucleic acid, listed as Homo sapiens)
DNA 1: CGGGCCAGGTGTGCGCCCTCCTCGCTGCGAGGGGGAGCGGGCGGCTGCGGGGAGCGATTTTCCAGCCCGGTTTGTGCTCTGTGTGTTTGTCTGCCTCTGGAGGGCTGGGTCCTCCTTATTCACAGGTGAGTCACACCCTGAAACACAGGCTCTCTTCCTGTCAGGACTGAGTCAGGTAGAAGAGTCGTGCGCCCTCCTCGCTGCGAGGGGGAGCGGGCGGCTGCGGGGAGCGATTTTCCAGCCCGGTTTGTGCTCTGTGTGTTTGTCTGCCTCTGGAGGGCTGGGTCCTCCTTATTCACAGGTGAGTCACACCCTGAAACACAGGCTCTCTTCCTGTCAGGACTGAGTCAGGTAGAAGAGTCGTGCGCCCTCCTCGCTGCGAGGGGGAGCGGGCGGCTGCGGGGAGCGATTTTCCAGCCCGGTTTGTGCTCTGTGTGTTTGTCTGCCTCTGGAGGGCTGGGTCCTCCTTATTCACAGGTGAGTCACACCCTGAAACACAGGCTCTCTTCCTGTCAGGACTGAGTCAGGTAGAAGAGTCAAGCTTATAAAACCACCTGATCAAGGAAAAGGAAGGCACAGCGGAGCGCAGAGTGAGAACCACCAACCGGAATTC
DNA 2: CGGTCGGGCCAGGTGTGCGCCCTCCTCGCTGCGAGGGGGAGCGGGCGGCTGCGGGGAGCGATTTTCCAGCCCGGTTTGTGCTCTGTGTGTTTGTCTGCCTCTGGAGGGCTGGGTCCTCCTTATTCACAGGTGAGTCACACCCTGAAACACAGGCTCTCTTCCTGTCAGGACTGAGTCAGGTAGAAGAGTCGTGCGCCCTCCTCGCTGCGAGGGGGAGCGGGCGGCTGCGGGGAGCGATTTTCCAGCCCGGTTTGTGCTCTGTGTGTTTGTCTGCCTCTGGAGGGCTGGGTCCTCCTTATTCACAGGTGAGTCACACCCTGAAACACAGGCTCTCTTCCTGTCAGGACTGAGTCAGGTAGAAGAGTCGTGCGCCCTCCTCGCTGCGAGGGGGAGCGGGCGGCTGCGGGGAGCGATTTTCCAGCCCGGTTTGTGCTCTGTGTGTTTGTCTGCCTCTGGAGGGCTGGGTCCTCCTTATTCACAGGTGAGTCACACCCTGAAACACAGGCTCTCTTCCTGTCAGGACTGAGTCAGGTAGAAGAGTCAAGCTTATAAAACCACCTGATCAAGGAAAAGGAAGGCACAGCGGAGCGCAGAGTGAGAACCACCAACCG
With B1, the “more powerful than the endogenous promoter in stimulating gene expression” value in data set [1] (LAMC2 synthetic promoter vs endogenous LAMC2 promoter) was 1000 ×. Also, the “relative luciferase activity in comparison to endogenous LAMC2 promoter and CMV promoter” value in data set [1] (PANC-1, MIA PaPc2, AsPc-1, Capan-2 (FIG. 23)) is reported as “greatest amount of activity”. The “relative luciferase activity among synthetic LAMC2 promoters and CMV” value in data set [1] (various cell lines (FIG. 22)) is recorded as “greatest amount of luciferase activity”. In data set [2], the “relative luciferase activity in normal pancreatic cells” value is given as “no activity”.

The record behind these values is patent US11060087B2, “Synthetic promoters for high throughput screening and gene modulation” (The Regents of the University of California, priority 2016, dated 2021).
